Our source for the IC50 values is patent US8148391B2 (Cephalon, Inc., priority 2006, dated 2012).

For assay [1], the target named is T1, baculovirus-expressed ALK (Homo sapiens, UniProt Q9UM73).
T1 construct: host or cells: baculovirus expression system
The assay is described as follows: ALK Kinase Assay (ELISA-type, time-resolved fluorescence). The settings on record: 1 μM ATP (Km level); read-out: ALK Activity (ALK Kinase Inhibition, IC50). The assay is classed as biochemical. Summed up: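 Substrate coating: phospholipase C-γ, 10 μg/mL in TBS. Kinase step: 30 ng/ml ALK, 15 min, 37° C. Detection and analysis: Eu-N1 PT66 antibody, with IC50 fitted as a sigmoidal variable-slope dose-response curve.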

Assay [2] has as its target T2, c-Met (cytoplasmic domain) (Homo sapiens, UniProt P08581).
T2 construct: 10 ng/mL c-Met (cytoplasmic domain, Invitrogen Corporation #PV3143); purchased Invitrogen Corporation PV3143
The assay is described as follows: c-Met Kinase Assay (same methods as for ALK, with modifications). The assay is classed as biochemical. The settings on record: 1 μM ATP (Km level); read-out: cMet Activity (c-Met Kinase Inhibition, IC50). Put shortly: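 This plate-based kinase format uses immobilized phospholipase C-γ as substrate, phosphorylated by c-Met cytoplasmic domain (10 ng/mL) at 37° C for 15 minutes.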

T1 sequence (Q9UM73 19-1620): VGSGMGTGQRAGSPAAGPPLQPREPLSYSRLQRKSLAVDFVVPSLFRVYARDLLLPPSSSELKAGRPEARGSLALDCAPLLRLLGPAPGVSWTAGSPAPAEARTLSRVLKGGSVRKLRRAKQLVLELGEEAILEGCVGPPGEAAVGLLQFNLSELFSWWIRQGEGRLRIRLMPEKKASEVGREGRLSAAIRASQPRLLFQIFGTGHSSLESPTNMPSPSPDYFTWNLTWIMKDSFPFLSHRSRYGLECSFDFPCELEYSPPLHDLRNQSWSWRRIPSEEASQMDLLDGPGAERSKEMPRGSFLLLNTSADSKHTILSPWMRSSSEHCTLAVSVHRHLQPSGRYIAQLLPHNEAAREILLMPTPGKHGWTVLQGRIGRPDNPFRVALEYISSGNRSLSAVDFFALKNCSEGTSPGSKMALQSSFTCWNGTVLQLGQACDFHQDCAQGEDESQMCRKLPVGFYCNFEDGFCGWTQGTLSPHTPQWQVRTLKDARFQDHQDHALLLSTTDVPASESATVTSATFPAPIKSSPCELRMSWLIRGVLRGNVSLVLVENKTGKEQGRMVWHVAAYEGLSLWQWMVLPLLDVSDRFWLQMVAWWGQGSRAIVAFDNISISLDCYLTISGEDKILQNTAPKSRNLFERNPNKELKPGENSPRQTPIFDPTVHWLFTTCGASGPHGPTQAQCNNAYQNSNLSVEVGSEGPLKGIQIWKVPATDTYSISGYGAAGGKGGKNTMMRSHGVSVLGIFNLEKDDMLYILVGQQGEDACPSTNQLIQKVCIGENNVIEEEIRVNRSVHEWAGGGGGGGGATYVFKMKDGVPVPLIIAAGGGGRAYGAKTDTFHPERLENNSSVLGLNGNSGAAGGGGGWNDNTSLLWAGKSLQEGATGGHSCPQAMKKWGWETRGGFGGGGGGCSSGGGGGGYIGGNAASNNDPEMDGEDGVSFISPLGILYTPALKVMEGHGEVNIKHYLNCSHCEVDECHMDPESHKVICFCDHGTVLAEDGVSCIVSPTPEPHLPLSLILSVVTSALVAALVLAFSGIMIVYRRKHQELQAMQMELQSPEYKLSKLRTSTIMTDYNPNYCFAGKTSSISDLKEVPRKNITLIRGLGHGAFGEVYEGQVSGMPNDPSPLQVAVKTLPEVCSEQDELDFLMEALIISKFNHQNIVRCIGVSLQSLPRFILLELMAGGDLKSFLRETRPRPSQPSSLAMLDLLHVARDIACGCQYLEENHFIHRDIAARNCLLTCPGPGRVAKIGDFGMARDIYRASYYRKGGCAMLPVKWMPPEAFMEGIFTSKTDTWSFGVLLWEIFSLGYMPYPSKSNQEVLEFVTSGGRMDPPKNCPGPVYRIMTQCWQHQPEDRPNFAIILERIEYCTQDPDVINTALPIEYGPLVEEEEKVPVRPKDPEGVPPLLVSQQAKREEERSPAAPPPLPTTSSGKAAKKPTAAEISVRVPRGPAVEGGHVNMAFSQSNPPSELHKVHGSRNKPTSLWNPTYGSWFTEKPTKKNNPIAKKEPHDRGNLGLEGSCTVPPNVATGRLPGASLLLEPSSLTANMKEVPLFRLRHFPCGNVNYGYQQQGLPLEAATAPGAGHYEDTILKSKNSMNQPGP
T2 sequence (P08581 956-1390 limits assumed): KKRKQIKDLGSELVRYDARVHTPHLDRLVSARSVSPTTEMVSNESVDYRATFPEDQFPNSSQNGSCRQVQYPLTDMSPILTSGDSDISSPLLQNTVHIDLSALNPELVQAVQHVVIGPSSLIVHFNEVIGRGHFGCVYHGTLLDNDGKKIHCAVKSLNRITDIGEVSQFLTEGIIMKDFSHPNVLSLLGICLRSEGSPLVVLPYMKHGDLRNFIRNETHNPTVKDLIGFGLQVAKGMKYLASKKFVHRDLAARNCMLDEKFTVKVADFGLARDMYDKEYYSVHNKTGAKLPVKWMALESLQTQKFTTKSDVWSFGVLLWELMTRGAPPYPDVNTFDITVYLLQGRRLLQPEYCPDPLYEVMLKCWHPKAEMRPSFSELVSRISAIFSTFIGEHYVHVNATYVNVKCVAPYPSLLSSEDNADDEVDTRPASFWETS

Take `COc1c(Nc2ncc(Cl)c(Nc3ccccc3S(=O)(=O)N(C)C)n2)ccc2c1CCC(NCC(F)F)CC2` (stereo not shown) [Example 683, 2-{5-Chloro-2-[7-(2,2-difluoro-ethylamino)-1-methoxy-6,7,8,9-tetrahydro-5H-benzocyclohepten-2-ylamino]-pyrimidin-4-ylamino}-N,N-dimethyl-benzenesulfonamide]: the IC50 in assay [1] was < 0.1 µM; in assay [2], > 10 µM.

Regarding `COc1c(Nc2ncc(Cl)c(Nc3ccccc3S(=O)(=O)N(C)C)n2)ccc2c1CCC(NCC(F)(F)F)CC2` (stereo not shown) [Example 684, 2-{5-Chloro-2-[1-methoxy-7-(2,2,2-trifluoro-ethylamino)-6,7,8,9-tetrahydro-5H-benzocyclohepten-2-ylamino]-pyrimidin-4-ylamino}-N,N-dimethyl-benzenesulfonamide], the values for the IC50 in assay [1] and in assay [2] were < 0.1 µM and > 10 µM, respectively.

As for `COc1c(Nc2ncc(Cl)c(Nc3ccccc3-n3cccn3)n2)ccc2c1CCC(NCC(F)F)CC2` (stereo not shown) [Example 689, 5-Chloro-N*2*-[7-(2,2-difluoro-ethylamino)-1-methoxy-6,7,8,9-tetrahydro-5H-benzocyclohepten-2-yl]-N*4*-(2-pyrazol-1-yl-phenyl)-pyrimidine-2,4-diamine], the IC50 in assay [1] was < 0.1 µM; in assay [2], > 10 µM.

For `COc1c(Nc2ncc(Cl)c(Nc3ccccc3-n3cccn3)n2)ccc2c1CCC(NCC(F)(F)F)CC2` (stereo not shown) [Example 690, 5-Chloro-N*2*-[1-methoxy-7-(2,2,2-trifluoro-ethylamino)-6,7,8,9-tetrahydro-5H-benzocyclohepten-2-yl]-N*4*-(2-pyrazol-1-yl-phenyl)-pyrimidine-2,4-diamine], the IC50 in assay [1] was 0.1 to 1 µM; in assay [2], > 10 µM.

Consider `COCCNC1CCc2ccc(Nc3ncc(Cl)c(Nc4ccccc4S(=O)(=O)N4CCC(O)C4)n3)c(OC)c2CC1` (stereo not shown) [Example 695, 1-(2-{5-Chloro-2-[1-methoxy-7-(2-methoxy-ethylamino)-6,7,8,9-tetrahydro-5H-benzocyclohepten-2-ylamino]-pyrimidin-4-ylamino}-benzenesulfonyl)-pyrrolidin-3-ol], for which the figures for the IC50 in assay [1] and in assay [2] were < 0.1 µM and 1 to 10 µM, respectively.

`COCCN(C)C1CCc2ccc(Nc3ncc(Cl)c(N[C@@H]4CCCC[C@H]4NS(C)(=O)=O)n3)c(OC)c2CC1` (stereo partly drawn) [Example 702, N-[(1R,2R)-2-(5-Chloro-2-{1-methoxy-7-[(2-methoxy-ethyl)-methyl-amino]-6,7,8,9-tetrahydro-5H-benzocyclohepten-2-ylamino}-pyrimidin-4-ylamino)-cyclohexyl]-methanesulfonamide]: the IC50 is < 0.1 µM in assay [1] and > 10 µM in assay [2].

On to `COc1c(Nc2ncc(Cl)c(Nc3ccccc3S(=O)(=O)N3CCC(O)C3)n2)ccc2c1CCC(NCCO)CC2` (stereo not shown) [Example 703, 1-(2-{5-Chloro-2-[7-(2-hydroxy-ethylamino)-1-methoxy-6,7,8,9-tetrahydro-5H-benzocyclohepten-2-ylamino]-pyrimidin-4-ylamino}-benzenesulfonyl)-pyrrolidin-3-ol], for which the IC50 was < 0.1 µM in assay [1] and 0.1 to 1 µM in assay [2].

Turning to `COc1c(Nc2ncc(Cl)c(Nc3ccccc3S(=O)(=O)N3CCCC3)n2)ccc2c1CCC(NCCO)CC2` (stereo not shown) [Example 704, 2-(2-{5-Chloro-4-[2-(pyrrolidine-1-sulfonyl)-phenylamino]-pyrimidin-2-ylamino}-1-methoxy-6,7,8,9-tetrahydro-5H-benzocyclohepten-7-ylamino)-ethanol], the IC50 in assay [1] is < 0.1 µM; in assay [2] it was 0.1 to 1 µM.

On to `COc1cc(N2CCOCC2)ccc1Nc1nc(Nc2ccc3c(c2OC)CCC(NCCO)CC3)ncc1Cl` (stereo not shown) [Example 705, 2-{2-[5-Chloro-4-(2-methoxy-4-morpholin-4-yl-phenylamino)-pyrimidin-2-ylamino]-1-methoxy-6,7,8,9-tetrahydro-5H-benzocyclohepten-7-ylamino}-ethanol], for which the IC50 in assay [1] is < 0.1 µM; in assay [2] it was > 10 µM.

For the compound `COCCN1CCOc2ccc(Nc3ncc(Cl)c(N[C@@H]4CCCC[C@H]4NS(C)(=O)=O)n3)cc2C1` [Example 711, N-((1R,2R)-2-{5-Chloro-2-[4-(2-methoxy-ethyl)-2,3,4,5-tetrahydro-benzo[f][1,4]oxazepin-7-ylamino]-pyrimidin-4-ylamino}-cyclohexyl)methanesulfonamide], the IC50 in assay [1] was < 0.1 µM; in assay [2], 0.1 to 1 µM.

In the case of `CCN1CCN(CC)c2cc(Nc3ncc(Cl)c(Nc4ccc(N5CCOCC5)cc4OC)n3)ccc2C1` [Example 712, 5-Chloro-N*2*-(1,4-diethyl-2,3,4,5-tetrahydro-1H-benzo[e][1,4]diazepin-8-yl)-N*4*-(2-methoxy-4-morpholin-4-yl-phenyl)-pyrimidin-2,4-diamine], the values for the concentration for half-maximal inhibition (IC50) in assay [1] and in assay [2] were < 0.1 µM and 1 to 10 µM, respectively.

Turning to `CCN1CCN(CC)c2cc(Nc3ncc(Cl)c(Nc4ccccc4C(=O)OCCOC)n3)ccc2C1` [Example 713, 2-[5-Chloro-2-(1,4-diethyl-2,3,4,5-tetrahydro-1H-benzo[e][1,4]diazepin-8-ylamino)-pyrimidin-4-ylamino]-benzoic acid 2-methoxy-ethyl ester], the IC50 is < 0.1 µM in assay [1] and 1 to 10 µM in assay [2].

Take `CCN1CCN(CC)c2cc(Nc3ncc(Cl)c(N[C@@H]4[C@H](C(N)=O)[C@H]5C=C[C@@H]4C5)n3)ccc2C1` [Example 714, (2-exo,3-exo)-3-[5-Chloro-2-(1,4-diethyl-2,3,4,5-tetrahydro-1H-benzo[e][1,4]diazepin-8-ylamino)-pyrimidin-4-ylamino]-bicyclo[2.2.1}hept-5-ene-2-carboxylic acid amide]: the IC50 in assay [1] was < 0.1 µM; in assay [2], 1 to 10 µM.

As to `CCN1CCN(CC)c2cc(Nc3ncc(Cl)c(Nc4ccccc4-c4nccn4C)n3)ccc2C1` [Example 715, 5-Chloro-N*2*-(1,4-diethyl-2,3,4,5-tetrahydro-1H-benzo[e][1,4]diazepin-8-yl)-N*4*-[2-(1-methyl-1H-imidazol-2-yl)-phenyl]-pyrimidine-2,4-diamine], the IC50 was < 0.1 µM in assay [1] and 0.1 to 1 µM in assay [2].

With `CCN1CCN(CC)c2cc(Nc3ncc(Cl)c(Nc4c(F)cccc4C(=O)NC)n3)ccc2C1` [Example 716, 2-[5-Chloro-2-(1,4-diethyl-2,3,4,5-tetrahydro-1H-1,4-benzodiazepin-8-ylamino)-pyrimidin-4-ylamino]-3-fluoro-N-methyl-benzamide], the IC50 in assay [1] and in assay [2] was < 0.1 µM each time.

`CCN1CCN(CC)c2cc(Nc3ncc(Cl)c(N[C@H]4[C@@H]5CC[C@@H](C5)[C@H]4C(N)=O)n3)ccc2C1` [Example 717, (2-exo,3-exo)-3-[5-Chloro-2-(1,4-diethyl-2,3,4,5-tetrahydro-1H-1,4-benzodiazepin-8-ylamino)-pyrimidin-4-ylamino]bicyclo[2.2.1]heptane-2-carboxylic acid amide]: the IC50 was < 0.1 µM in assay [1] and 1 to 10 µM in assay [2].

Turning to `CCNC(=O)c1ccccc1Nc1nc(Nc2ccc3c(c2)N(CC)CCN(CC)C3)ncc1Cl` [Example 718, 2-[5-Chloro-2-(1,4-diethyl-2,3,4,5-tetrahydro-1H-1,4-benzodiazepin-8-ylamino)-pyrimidin-4-ylamino]-N-ethyl-benzamide], the IC50 in assay [1] and in assay [2] was < 0.1 µM each time.

For the compound `CCN1CCN(CC)c2cc(Nc3ncc(Cl)c(Nc4cc(Cl)ccc4OC)n3)ccc2C1` [Example 719, 5-Chloro-N*4*(5-chloro-2-methoxy-phenyl-N*2*-(1,4-diethyl-2,3,4,5-tetrahydro-1H-benzo[e][1,4]diazepin-8-yl)-pyrimidine)-2,4-diamine], the concentration for half-maximal inhibition (IC50) in assay [1] was < 0.1 µM; in assay [2], 1 to 10 µM.

With `CCN1CCN(CC)c2cc(Nc3ncc(Cl)c(N[C@H]4[C@@H](C(N)=O)[C@@H]5C=C[C@H]4C5)n3)ccc2C1` [Example 720, (1S,2S,3R,4R)-3 [5-Chloro-2-(1,4-diethyl-2,3,4,5-tetrahydro-1H-1,4-benzodiazepin-8-ylamino)-pyrimidin-4ylamino]-bicyclo[2.2.1]hept-5-ene-2-carboxylic acid amide], the IC50 was < 0.1 µM in assay [1] and 1 to 10 µM in assay [2].

Regarding `CCN1CCN(CC)c2cc(Nc3ncc(Cl)c(Nc4ccc5c(c4)N(CC)CCN(CC)C5)n3)ccc2C1` [Example 721, 5-Chloro-N*2*,N*4*-bis(1,4-diethyl-2,3,4,5-tetrahydro-1H-benzo[e][1,4]diazepin-8-yl)-pyrimidin-2,4-diamine], the IC50 is < 0.1 µM in assay [1] and > 10 µM in assay [2].

As to `CCN1CCN(CC)c2cc(Nc3ncc(Cl)c(Nc4ccc5c(c4)N(CC)CCN(CC)C5=O)n3)ccc2C1` [Example 722, 8-[5-Chloro-2-(1,4-diethyl-2,3,4,5-tetrahydro-1H-benzo[e][1,4]diazepin-8-ylamino)-pyrimidin-4-ylamino]-1,4-diethyl-1,2,3,4-tetrahydro-benzo[e][1,4]diazepin-5-one], the figures for the IC50 in assay [1] and in assay [2] were 0.1 to 1 µM and > 10 µM, respectively.

As for `CCN1CCN(CC)c2cc(Nc3nc(Nc4cc5c(cc4OC)CCN(CC(=O)N(C)C)CC5)ncc3Cl)ccc2C1` [Example 723], the IC50 was < 0.1 µM in assay [1] and > 10 µM in assay [2].

With `CCN1CCN(CC)c2cc(Nc3nc(Nc4cc5c(cc4OC)CCN(CC(=O)N(C)C)CC5)ncc3Cl)ccc2C1=O` [Example 724, 2-{7-[5-Chloro-4-(1,4-diethyl-5-oxo-2,3,4,5-tetrahydro-1H-benzo[e][1,4]diazepin-8-ylamino)-pyrimidin-2-ylamino]-8-methoxy-1,2,3,4-tetrahydro-benzo[d]azepin-3-yl}-N,N-dimethyl-acetamide], the results for the IC50 in assay [1] and in assay [2] were < 0.1 µM and > 10 µM, respectively.
